Test results from the kinase profiling compilation of Christmann-Franck et al. (2016).
pKd: −log10 of the molar value.

Experiments:
Test in all cases: KINOMEscan competition binding
[1] = molecular target: CAMKK2 (human) (UniProt Q96RR4); conditions: compound 10.0 µM
[2] = molecular target: CSNK1G1 (human) (UniProt Q9HCP0); conditions: compound 10.0 µM
[3] = molecular target: CSNK1G3 (human) (UniProt Q9Y6M4); conditions: compound 10.0 µM
[4] = molecular target: DAPK2 (human) (UniProt Q9UIK4); conditions: compound 10.0 µM
[5] = molecular target: DYRK1B (human) (UniProt Q9Y463); conditions: compound 10.0 µM
[6] = molecular target: FLT3 (human) (UniProt P36888); conditions: compound 10.0 µM
[7] = test system: FLT3 (human), P36888 [D835H]; conditions: compound 10.0 µM
[8] = molecular target: JAK1 JH2 pseudokinase (human) (UniProt P23458); conditions: compound 10.0 µM
[9] = molecular target: JAK3 JH1 catalytic (human) (UniProt P52333); conditions: compound 10.0 µM
[10] = molecular target: MAP4K2 (human) (UniProt Q12851); conditions: compound 10.0 µM
[11] = molecular target: MAP4K4 (human) (UniProt O95819); conditions: compound 10.0 µM
[12] = molecular target: MELK (human) (UniProt Q14680); conditions: compound 10.0 µM
[13] = molecular target: MYLK (human) (UniProt Q15746); conditions: compound 10.0 µM
[14] = molecular target: MYLK3 (human) (UniProt Q32MK0); conditions: compound 10.0 µM
[15] = molecular target: MYLK4 (human) (UniProt Q86YV6); conditions: for kinase still bound, per cent of control: compound 10.0 µM
[16] = molecular target: NEK2 (human) (UniProt P51955); conditions: compound 10.0 µM
[17] = molecular target: PIM1 (human) (UniProt P11309); conditions: compound 10.0 µM
[18] = molecular target: PIP5K1A (human) (UniProt Q99755); conditions: compound 10.0 µM
[19] = molecular target: PLK4 (human) (UniProt O00444); conditions: compound 10.0 µM
[20] = molecular target: RIOK2 (human) (UniProt Q9BVS4); conditions: compound 10.0 µM
[21] = molecular target: RIPK4 (human) (UniProt P57078); conditions: compound 10.0 µM
[22] = molecular target: RPS6KA6 KD2 (human) (UniProt Q9UK32); conditions: compound 10.0 µM
[23] = molecular target: STK16 (human) (UniProt O75716); conditions: compound 10.0 µM
[24] = molecular target: STK17A (human) (UniProt Q9UEE5); conditions: compound 10.0 µM
[25] = molecular target: STK17B (human) (UniProt O94768); conditions: compound 10.0 µM
[26] = molecular target: TTK (human) (UniProt P33981); conditions: compound 10.0 µM
[27] = molecular target: ULK2 (human) (UniProt Q8IYT8); conditions: compound 10.0 µM
[28] = molecular target: CAMKK1 (human) (UniProt Q8N5S9); conditions: compound 10.0 µM
[29] = molecular target: CLK3 (human) (UniProt P49761); conditions: compound 10.0 µM
[30] = molecular target: CSNK1D (human) (UniProt P48730); conditions: compound 10.0 µM
[31] = test system: EGFR (human), P00533 [G719S]; conditions: compound 10.0 µM
[32] = molecular target: HIPK1 (human) (UniProt Q86Z02); conditions: compound 10.0 µM
[33] = molecular target: PIM2 (human) (UniProt Q9P1W9); conditions: compound 10.0 µM
[34] = molecular target: ACVR1 (human) (UniProt Q04771); conditions: compound 10.0 µM
[35] = molecular target: KIT (human) (UniProt P10721); conditions: compound 10.0 µM
[36] = test system: KIT (human), P10721 [D816V]; conditions: compound 10.0 µM
[37] = test system: KIT (human), P10721 [V559D/T670I]; conditions: compound 10.0 µM
[38] = molecular target: MKNK1 (human) (UniProt Q9BUB5); conditions: compound 10.0 µM
[39] = molecular target: PDGFRB (human) (UniProt P09619); conditions: compound 10.0 µM
[40] = molecular target: RIPK2 (human) (UniProt O43353); conditions: compound 10.0 µM

ULK2 (human), sequence (Q8IYT8 whole entry, looked up): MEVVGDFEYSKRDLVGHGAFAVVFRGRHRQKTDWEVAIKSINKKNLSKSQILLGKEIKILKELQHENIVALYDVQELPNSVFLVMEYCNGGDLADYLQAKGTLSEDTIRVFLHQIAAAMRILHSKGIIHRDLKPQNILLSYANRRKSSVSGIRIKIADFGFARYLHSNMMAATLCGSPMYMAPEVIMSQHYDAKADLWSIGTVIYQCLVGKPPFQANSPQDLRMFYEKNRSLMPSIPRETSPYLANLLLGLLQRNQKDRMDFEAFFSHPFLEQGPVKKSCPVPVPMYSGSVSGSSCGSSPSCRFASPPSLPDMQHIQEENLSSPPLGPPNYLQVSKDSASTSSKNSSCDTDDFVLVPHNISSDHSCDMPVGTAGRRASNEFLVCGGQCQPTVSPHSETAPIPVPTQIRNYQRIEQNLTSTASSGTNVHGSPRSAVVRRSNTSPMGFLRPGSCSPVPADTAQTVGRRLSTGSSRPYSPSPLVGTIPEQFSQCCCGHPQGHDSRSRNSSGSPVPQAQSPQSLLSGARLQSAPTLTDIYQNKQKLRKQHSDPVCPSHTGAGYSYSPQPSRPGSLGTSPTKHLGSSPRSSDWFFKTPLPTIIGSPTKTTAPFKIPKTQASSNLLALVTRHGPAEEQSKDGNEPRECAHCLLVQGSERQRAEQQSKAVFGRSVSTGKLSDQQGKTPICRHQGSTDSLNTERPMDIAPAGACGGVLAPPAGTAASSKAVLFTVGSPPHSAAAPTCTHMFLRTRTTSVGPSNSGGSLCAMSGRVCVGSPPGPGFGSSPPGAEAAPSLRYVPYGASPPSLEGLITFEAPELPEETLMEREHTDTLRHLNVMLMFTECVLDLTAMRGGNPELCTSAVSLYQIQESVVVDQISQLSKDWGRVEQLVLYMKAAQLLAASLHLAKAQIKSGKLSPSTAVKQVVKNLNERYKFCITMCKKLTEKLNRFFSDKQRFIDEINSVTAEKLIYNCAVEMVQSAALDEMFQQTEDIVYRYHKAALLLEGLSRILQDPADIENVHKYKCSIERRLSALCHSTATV
STK17B (human), sequence (O94768 whole entry, looked up): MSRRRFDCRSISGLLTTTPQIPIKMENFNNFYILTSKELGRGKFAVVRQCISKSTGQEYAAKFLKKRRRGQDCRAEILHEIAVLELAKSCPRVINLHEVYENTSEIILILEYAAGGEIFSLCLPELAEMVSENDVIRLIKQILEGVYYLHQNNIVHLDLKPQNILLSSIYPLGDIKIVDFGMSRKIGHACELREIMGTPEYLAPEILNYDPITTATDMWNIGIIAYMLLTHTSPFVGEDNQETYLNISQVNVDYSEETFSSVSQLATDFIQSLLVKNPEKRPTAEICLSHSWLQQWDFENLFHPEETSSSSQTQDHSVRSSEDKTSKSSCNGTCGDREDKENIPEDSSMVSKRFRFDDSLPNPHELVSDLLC
MAP4K2 (human), sequence (Q12851 whole entry, looked up): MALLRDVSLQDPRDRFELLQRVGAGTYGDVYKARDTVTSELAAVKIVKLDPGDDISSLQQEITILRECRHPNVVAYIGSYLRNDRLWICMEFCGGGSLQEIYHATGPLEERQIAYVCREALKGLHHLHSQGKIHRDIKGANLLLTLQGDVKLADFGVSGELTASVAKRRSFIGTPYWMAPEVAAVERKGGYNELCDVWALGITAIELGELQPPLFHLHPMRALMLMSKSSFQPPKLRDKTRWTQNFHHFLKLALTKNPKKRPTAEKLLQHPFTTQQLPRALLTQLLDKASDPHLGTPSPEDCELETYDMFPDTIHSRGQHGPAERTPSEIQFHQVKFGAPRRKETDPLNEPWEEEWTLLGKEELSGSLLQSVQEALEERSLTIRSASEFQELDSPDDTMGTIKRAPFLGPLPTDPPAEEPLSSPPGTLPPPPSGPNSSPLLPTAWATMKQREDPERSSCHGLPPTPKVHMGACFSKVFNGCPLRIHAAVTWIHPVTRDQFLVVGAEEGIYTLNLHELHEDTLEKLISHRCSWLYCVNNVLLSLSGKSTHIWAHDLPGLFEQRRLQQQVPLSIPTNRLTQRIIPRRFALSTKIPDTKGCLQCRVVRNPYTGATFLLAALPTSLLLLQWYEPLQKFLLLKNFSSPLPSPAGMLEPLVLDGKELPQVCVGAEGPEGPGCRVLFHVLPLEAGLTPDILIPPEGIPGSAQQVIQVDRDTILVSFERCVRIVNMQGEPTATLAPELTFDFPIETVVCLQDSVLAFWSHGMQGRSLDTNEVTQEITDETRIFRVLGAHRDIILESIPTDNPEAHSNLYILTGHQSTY
MYLK4 (human), sequence (Q86YV6 whole entry, looked up): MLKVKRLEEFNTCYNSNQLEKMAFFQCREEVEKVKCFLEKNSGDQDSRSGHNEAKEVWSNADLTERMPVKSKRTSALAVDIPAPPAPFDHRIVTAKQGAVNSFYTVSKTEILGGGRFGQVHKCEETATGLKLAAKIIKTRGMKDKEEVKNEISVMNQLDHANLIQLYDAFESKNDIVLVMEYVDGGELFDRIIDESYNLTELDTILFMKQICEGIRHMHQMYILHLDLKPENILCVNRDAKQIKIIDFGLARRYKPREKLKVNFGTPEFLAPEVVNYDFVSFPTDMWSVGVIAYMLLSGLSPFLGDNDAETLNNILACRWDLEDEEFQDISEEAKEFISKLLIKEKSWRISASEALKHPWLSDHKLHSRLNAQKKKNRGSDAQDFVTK
PIM2 (human), sequence (Q9P1W9 whole entry, looked up): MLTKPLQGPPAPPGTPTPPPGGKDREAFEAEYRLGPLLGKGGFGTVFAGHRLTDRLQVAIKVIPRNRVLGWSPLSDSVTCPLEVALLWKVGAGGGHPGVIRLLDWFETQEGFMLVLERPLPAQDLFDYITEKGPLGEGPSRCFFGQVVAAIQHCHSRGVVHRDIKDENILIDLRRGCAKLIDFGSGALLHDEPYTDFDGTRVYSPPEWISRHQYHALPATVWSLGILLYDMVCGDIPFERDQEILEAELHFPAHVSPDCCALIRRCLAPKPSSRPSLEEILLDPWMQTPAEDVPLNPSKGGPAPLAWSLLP
DYRK1B (human), sequence (Q9Y463 whole entry, looked up): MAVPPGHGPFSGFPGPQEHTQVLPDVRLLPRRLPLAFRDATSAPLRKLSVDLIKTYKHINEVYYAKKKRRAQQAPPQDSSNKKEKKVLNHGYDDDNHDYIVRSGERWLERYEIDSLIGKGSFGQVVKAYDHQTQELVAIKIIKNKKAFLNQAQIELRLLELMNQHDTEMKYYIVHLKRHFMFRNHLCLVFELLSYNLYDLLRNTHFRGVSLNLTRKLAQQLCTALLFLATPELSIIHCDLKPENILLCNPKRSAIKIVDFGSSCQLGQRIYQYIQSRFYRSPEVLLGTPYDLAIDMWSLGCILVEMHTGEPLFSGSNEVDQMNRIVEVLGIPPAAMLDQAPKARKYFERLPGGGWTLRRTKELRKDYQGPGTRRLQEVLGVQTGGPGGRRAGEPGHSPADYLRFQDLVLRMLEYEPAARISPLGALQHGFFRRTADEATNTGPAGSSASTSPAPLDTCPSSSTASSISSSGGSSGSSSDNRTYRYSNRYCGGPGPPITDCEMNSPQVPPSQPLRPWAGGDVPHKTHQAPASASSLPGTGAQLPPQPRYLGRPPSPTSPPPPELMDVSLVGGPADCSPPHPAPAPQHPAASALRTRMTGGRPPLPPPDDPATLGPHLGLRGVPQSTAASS
MELK (human), sequence (Q14680 whole entry, looked up): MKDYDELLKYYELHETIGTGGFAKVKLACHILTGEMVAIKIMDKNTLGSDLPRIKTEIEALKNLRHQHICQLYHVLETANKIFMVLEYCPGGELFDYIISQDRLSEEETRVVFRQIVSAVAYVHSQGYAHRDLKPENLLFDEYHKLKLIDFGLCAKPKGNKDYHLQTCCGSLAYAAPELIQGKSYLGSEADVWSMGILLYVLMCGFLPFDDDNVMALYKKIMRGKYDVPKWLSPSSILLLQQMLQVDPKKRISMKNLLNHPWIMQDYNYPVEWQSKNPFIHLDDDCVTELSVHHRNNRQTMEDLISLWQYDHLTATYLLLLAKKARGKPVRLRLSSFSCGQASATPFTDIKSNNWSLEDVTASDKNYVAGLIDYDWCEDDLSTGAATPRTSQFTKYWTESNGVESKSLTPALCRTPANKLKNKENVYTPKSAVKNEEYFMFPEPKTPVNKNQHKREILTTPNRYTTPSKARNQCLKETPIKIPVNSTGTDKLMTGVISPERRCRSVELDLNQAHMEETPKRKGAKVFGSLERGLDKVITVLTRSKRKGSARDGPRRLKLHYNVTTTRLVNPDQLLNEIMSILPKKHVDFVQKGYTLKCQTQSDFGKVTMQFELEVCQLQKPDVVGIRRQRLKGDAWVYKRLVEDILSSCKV
PIP5K1A (human), sequence (Q99755 whole entry, looked up): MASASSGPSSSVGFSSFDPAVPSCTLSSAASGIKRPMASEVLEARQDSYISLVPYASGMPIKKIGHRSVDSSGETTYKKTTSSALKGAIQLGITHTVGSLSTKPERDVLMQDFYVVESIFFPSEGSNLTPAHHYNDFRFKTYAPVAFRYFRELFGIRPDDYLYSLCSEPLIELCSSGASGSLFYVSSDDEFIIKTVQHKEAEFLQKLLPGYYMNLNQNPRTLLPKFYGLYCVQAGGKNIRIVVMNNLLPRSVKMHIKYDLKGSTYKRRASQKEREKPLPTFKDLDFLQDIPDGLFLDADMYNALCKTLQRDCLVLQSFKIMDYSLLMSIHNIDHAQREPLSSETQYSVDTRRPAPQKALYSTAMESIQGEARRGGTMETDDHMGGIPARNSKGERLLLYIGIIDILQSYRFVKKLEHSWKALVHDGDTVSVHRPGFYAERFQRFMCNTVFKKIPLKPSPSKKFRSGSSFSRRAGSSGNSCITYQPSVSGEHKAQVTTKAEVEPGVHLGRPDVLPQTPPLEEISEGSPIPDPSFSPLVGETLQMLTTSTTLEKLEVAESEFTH

CN1C(=O)[C@H]2CCC[C@H]2N(C2CCCC2)c2nc(Nc3ccc(C(N)=O)cc3)ncc21
kinase still bound, per cent of control [1]: 33%
kinase still bound, per cent of control [2]: 23%
kinase still bound, per cent of control [3]: 17%
kinase still bound, per cent of control [4]: 8.6%
kinase still bound, per cent of control [5]: 2.8%
kinase still bound, per cent of control [6]: 19%
kinase still bound, per cent of control [7]: 11%
kinase still bound, per cent of control [8]: 9.2%
kinase still bound, per cent of control [9]: 32%
kinase still bound, per cent of control [10]: 13%
kinase still bound, per cent of control [11]: 3.5%
kinase still bound, per cent of control [12]: 27%
kinase still bound, per cent of control [13]: 23%
kinase still bound, per cent of control [14]: 5.5%
kinase still bound, per cent of control [15]: 30%
kinase still bound, per cent of control [16]: 13%
kinase still bound, per cent of control [17]: 6.8%
kinase still bound, per cent of control [18]: 29%
kinase still bound, per cent of control [19]: 1.6%
kinase still bound, per cent of control [20]: 6%
kinase still bound, per cent of control [21]: 30%
kinase still bound, per cent of control [22]: 13%
kinase still bound, per cent of control [23]: 4.8%
kinase still bound, per cent of control [24]: 0.05%
kinase still bound, per cent of control [25]: 0.2%
kinase still bound, per cent of control [26]: 14%
kinase still bound, per cent of control [27]: 17%

Nc1cccc(-c2cc(/C=C3\SC(=O)NC3=O)c[nH]c2=O)c1
kinase still bound, per cent of control [28]: 3.6%
kinase still bound, per cent of control [1]: 5.8%
kinase still bound, per cent of control [29]: 1.2%
kinase still bound, per cent of control [30]: 23%
kinase still bound, per cent of control [2]: 19%
kinase still bound, per cent of control [3]: 13%
kinase still bound, per cent of control [4]: 0.2%
kinase still bound, per cent of control [5]: 0.4%
kinase still bound, per cent of control [31]: 21%
kinase still bound, per cent of control [32]: 0.2%
kinase still bound, per cent of control [9]: 6.8%
kinase still bound, per cent of control [10]: 30%
kinase still bound, per cent of control [12]: 30%
kinase still bound, per cent of control [13]: 25%
kinase still bound, per cent of control [14]: 2%
kinase still bound, per cent of control [15]: 2.8%
kinase still bound, per cent of control [17]: 4.8%
kinase still bound, per cent of control [33]: 1%
kinase still bound, per cent of control [18]: 17%
kinase still bound, per cent of control [23]: 9.3%
kinase still bound, per cent of control [24]: 0.3%
kinase still bound, per cent of control [25]: 1%
kinase still bound, per cent of control [27]: 33%

N=C1NC(=O)/C(=C/c2ccc(-c3cncc4ccccc34)o2)S1
kinase still bound, per cent of control [34]: 0.5%
kinase still bound, per cent of control [28]: 3.4%
kinase still bound, per cent of control [1]: 7.4%
kinase still bound, per cent of control [29]: 18%
kinase still bound, per cent of control [30]: 3.4%
kinase still bound, per cent of control [4]: 7.4%
kinase still bound, per cent of control [5]: 11%
kinase still bound, per cent of control [31]: 26%
kinase still bound, per cent of control [6]: 10%
kinase still bound, per cent of control [7]: 3.3%
kinase still bound, per cent of control [8]: 13%
kinase still bound, per cent of control [35]: 10%
kinase still bound, per cent of control [36]: 3.8%
kinase still bound, per cent of control [37]: 14%
kinase still bound, per cent of control [10]: 6.9%
kinase still bound, per cent of control [12]: 28%
kinase still bound, per cent of control [38]: 0.8%
kinase still bound, per cent of control [13]: 19%
kinase still bound, per cent of control [14]: 0.55%
pKd [15]: 7.26
kinase still bound, per cent of control [15]: 0.05%
kinase still bound, per cent of control [39]: 5.4%
kinase still bound, per cent of control [17]: 0.7%
kinase still bound, per cent of control [33]: 0.9%
kinase still bound, per cent of control [18]: 3.3%
kinase still bound, per cent of control [19]: 0.95%
kinase still bound, per cent of control [21]: 4.7%
kinase still bound, per cent of control [22]: 8.6%
kinase still bound, per cent of control [23]: 2.6%
kinase still bound, per cent of control [24]: 0.05%
kinase still bound, per cent of control [25]: 0.2%
kinase still bound, per cent of control [26]: 2.4%

N=C1NC(=O)/C(=C/c2c[nH]c(=O)c(-c3ccc(N4CCNCC4)nc3)c2)S1
kinase still bound, per cent of control [34]: 29%
kinase still bound, per cent of control [29]: 29%
kinase still bound, per cent of control [4]: 2.3%
kinase still bound, per cent of control [5]: 1%
kinase still bound, per cent of control [32]: 0.15%
kinase still bound, per cent of control [10]: 32%
kinase still bound, per cent of control [11]: 9%
kinase still bound, per cent of control [12]: 27%
kinase still bound, per cent of control [16]: 13%
kinase still bound, per cent of control [17]: 4%
kinase still bound, per cent of control [33]: 1.8%
kinase still bound, per cent of control [18]: 14%
kinase still bound, per cent of control [40]: 27%
kinase still bound, per cent of control [24]: 0.35%
kinase still bound, per cent of control [25]: 1.7%
kinase still bound, per cent of control [27]: 4.8%
